Laboratory results taken from paper PMC7252619 (PLoS ONE, 2020).
Read-outs that look alike come from different tables or passages of the source.

Tests used:
Test in all cases: Kinase activity test (ReactionBiology), % enzyme activity relative to DMSO
Type in all cases: biochemical
[1] = molecular target: T1, DAPK1 (Homo sapiens, UniProt P53355); conditions: DAPK1
T1 construct: purchased ReactionBiology

[2] = molecular target: T2, CK1d (Homo sapiens, UniProt P48730); conditions: CK1d
T2 construct: purchased ReactionBiology

[3] = molecular target: T3, EPHB4 (Homo sapiens, UniProt P54760); conditions: EPHB4;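 further: EPHB4 was one of ten selected kinases in the screening panel, with enzyme activity expressed as a percentage of DMSO controls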
T3 construct: purchased ReactionBiology
T3 sequence (P54760 16-987): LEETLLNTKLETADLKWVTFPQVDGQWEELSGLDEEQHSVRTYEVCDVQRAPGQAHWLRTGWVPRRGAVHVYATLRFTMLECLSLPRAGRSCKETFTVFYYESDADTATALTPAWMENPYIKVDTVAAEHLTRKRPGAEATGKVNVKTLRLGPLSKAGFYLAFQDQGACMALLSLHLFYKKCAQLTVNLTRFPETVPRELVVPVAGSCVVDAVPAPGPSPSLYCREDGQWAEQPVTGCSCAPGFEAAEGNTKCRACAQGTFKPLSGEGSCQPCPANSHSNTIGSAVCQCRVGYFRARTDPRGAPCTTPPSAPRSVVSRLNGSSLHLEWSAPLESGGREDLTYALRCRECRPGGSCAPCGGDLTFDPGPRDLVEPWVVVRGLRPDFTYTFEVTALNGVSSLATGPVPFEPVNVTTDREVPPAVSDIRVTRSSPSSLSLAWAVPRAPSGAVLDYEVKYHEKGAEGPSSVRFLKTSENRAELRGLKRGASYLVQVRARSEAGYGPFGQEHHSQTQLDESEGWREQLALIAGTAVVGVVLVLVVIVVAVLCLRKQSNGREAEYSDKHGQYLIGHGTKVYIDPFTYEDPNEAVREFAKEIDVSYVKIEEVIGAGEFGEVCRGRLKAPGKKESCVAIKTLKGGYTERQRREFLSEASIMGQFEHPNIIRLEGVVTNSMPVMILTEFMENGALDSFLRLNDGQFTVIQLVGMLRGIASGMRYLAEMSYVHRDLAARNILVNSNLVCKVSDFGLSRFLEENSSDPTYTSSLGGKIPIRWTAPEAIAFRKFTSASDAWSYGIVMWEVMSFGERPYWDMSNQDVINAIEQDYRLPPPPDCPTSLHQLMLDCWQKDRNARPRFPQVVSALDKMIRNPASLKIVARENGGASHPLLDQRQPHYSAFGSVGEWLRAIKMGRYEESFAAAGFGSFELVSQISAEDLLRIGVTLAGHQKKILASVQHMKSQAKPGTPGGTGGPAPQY

[4] = molecular target: VEGFR2 (Homo sapiens, UniProt P35968); parameters: purchased ReactionBiology; conditions: VEGFR2;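 further: VEGFR2 was one member of a ten-kinase screening panel testing marketed FDA-approved drugs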
[5] = molecular target: T4, NEK2 (Homo sapiens, UniProt P51955); conditions: NEK2;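 further: FDA-approved drugs chosen by structure-based repositioning, each screened at 10 or 1 µM for kinase activity, expressed as percent of DMSO controls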
T4 construct: purchased ReactionBiology
T4 sequence (P51955 1-445): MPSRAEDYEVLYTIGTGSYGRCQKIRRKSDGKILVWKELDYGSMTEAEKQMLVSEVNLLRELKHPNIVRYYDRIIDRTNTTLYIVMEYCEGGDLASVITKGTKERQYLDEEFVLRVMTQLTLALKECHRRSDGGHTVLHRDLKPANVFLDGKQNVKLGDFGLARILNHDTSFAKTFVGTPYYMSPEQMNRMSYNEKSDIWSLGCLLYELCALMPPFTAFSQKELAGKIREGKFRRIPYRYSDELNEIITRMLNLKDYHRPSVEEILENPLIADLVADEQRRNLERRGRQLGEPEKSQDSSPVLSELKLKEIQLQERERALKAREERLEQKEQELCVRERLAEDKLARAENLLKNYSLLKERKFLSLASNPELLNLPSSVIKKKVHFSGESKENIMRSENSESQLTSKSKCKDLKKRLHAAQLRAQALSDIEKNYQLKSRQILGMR

[6] = molecular target: T5, MST-4 (Homo sapiens, UniProt Q9P289);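 further: marketed FDA-approved drugs screened at 10 µM and 1 µM against a ten-kinase panel, remaining activity given as percent of DMSO controls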
T5 construct: purchased ReactionBiology

[7] = 1 uM, Average, read-out: % Enzyme Activity (relative to DMSO controls), Average
[8] = 1 uM, replicate Data 1, read-out: % Enzyme Activity (relative to DMSO controls), Data 1
[9] = 1 uM, replicate Data 2, read-out: % Enzyme Activity (relative to DMSO controls), Data 2
[10] = 10 uM, Average, read-out: % Enzyme Activity (relative to DMSO controls), Average
[11] = 10 uM, replicate Data 1, read-out: % Enzyme Activity (relative to DMSO controls), Data 1
[12] = 10 uM, replicate Data 2, read-out: % Enzyme Activity (relative to DMSO controls), Data 2
[13] = read-out: % Enzyme Activity (relative to DMSO controls), Average
[14] = read-out: % Enzyme Activity (relative to DMSO controls), Data 1
[15] = read-out: % Enzyme Activity (relative to DMSO controls), Data 2

T1 sequence (P53355 whole entry): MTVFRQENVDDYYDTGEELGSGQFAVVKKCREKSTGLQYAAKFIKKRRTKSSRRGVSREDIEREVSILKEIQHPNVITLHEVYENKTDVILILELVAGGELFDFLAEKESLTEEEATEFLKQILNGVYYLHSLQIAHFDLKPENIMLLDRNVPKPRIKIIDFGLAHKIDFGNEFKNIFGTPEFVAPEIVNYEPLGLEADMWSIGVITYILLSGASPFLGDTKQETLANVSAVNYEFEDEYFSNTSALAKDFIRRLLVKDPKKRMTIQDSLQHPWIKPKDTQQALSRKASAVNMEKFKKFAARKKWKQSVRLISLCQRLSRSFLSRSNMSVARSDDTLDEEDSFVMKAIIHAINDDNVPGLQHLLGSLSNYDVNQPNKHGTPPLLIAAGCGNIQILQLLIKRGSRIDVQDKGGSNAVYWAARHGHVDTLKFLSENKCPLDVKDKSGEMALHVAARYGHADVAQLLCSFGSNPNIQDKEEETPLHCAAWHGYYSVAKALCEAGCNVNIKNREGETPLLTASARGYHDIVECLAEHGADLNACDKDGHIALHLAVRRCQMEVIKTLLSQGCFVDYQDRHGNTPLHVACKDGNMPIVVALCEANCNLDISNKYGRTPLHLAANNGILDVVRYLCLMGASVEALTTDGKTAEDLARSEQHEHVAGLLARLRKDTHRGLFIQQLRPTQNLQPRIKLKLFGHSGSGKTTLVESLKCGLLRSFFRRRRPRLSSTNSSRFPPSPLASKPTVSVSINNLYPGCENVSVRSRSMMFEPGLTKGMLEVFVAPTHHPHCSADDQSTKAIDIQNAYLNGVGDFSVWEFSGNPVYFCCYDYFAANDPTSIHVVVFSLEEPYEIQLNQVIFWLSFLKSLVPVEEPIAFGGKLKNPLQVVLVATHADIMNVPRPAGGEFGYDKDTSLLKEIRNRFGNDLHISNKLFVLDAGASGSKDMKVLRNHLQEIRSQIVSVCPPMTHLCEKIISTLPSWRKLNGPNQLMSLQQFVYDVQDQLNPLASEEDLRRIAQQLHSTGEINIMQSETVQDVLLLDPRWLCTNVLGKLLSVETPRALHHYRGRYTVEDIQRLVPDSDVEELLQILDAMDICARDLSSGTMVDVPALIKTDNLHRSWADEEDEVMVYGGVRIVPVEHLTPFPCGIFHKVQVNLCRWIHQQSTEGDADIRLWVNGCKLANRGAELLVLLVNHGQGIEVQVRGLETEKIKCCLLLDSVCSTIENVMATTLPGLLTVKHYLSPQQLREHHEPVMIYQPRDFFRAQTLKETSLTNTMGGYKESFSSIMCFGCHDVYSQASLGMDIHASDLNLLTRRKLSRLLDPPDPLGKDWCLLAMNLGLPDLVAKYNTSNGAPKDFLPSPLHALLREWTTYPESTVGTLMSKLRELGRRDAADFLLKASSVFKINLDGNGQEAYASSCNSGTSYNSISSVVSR
T2 sequence (P48730 whole entry): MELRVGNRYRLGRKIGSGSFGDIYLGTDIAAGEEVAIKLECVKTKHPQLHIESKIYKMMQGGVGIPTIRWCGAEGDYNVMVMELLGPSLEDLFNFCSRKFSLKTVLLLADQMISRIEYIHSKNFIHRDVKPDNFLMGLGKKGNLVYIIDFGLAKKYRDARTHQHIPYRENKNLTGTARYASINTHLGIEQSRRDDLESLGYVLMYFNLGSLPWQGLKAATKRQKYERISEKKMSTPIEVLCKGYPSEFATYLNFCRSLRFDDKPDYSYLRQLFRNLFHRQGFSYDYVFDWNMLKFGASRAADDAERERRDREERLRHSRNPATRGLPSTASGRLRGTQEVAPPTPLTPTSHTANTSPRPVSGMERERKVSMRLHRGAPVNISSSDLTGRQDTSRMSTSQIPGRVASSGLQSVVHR
Sequence of VEGFR2 (P35968 20-1356): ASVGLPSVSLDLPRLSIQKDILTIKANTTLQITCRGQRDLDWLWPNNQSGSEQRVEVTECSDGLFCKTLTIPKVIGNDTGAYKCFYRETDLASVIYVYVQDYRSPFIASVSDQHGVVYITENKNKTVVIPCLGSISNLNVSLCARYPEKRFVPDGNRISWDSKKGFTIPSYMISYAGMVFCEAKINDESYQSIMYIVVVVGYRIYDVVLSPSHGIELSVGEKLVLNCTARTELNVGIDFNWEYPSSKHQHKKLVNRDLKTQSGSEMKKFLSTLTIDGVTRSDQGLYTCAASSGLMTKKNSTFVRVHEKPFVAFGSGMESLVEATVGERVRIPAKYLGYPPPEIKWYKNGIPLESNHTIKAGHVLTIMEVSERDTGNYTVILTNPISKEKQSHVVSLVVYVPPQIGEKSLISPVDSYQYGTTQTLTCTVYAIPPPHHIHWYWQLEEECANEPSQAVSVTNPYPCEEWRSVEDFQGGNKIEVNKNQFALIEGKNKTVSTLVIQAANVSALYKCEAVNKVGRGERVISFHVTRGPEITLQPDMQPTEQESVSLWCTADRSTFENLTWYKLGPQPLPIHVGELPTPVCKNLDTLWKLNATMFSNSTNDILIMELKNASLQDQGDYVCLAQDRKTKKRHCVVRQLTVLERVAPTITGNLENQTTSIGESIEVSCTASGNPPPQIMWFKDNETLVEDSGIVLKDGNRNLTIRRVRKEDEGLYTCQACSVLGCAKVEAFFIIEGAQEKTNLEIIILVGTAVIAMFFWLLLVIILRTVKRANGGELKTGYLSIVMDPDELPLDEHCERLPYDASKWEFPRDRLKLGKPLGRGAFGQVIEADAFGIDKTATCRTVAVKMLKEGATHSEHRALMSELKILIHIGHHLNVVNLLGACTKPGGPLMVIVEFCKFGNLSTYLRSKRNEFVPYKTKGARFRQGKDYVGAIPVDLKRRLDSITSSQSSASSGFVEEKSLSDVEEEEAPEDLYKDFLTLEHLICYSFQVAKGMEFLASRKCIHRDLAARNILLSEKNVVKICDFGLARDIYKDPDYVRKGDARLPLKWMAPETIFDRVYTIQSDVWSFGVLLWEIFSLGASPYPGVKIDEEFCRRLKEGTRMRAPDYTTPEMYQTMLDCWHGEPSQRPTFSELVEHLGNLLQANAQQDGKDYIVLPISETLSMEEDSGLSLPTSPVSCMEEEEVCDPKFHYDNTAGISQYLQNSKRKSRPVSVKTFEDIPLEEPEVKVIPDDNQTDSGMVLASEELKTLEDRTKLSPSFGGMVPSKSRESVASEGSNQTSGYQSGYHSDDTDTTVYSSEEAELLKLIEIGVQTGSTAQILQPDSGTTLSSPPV
T5 sequence (Q9P289 whole entry): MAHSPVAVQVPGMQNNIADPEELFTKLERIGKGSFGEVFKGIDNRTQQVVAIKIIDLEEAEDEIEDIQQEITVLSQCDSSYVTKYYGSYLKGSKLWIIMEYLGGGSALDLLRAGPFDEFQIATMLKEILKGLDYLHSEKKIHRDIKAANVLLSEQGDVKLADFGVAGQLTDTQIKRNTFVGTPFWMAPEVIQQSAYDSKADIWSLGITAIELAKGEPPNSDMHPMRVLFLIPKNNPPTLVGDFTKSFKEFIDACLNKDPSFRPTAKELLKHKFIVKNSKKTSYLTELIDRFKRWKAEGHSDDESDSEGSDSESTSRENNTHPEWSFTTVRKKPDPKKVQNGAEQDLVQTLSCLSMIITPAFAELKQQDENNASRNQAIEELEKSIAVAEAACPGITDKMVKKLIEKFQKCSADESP

| remaining activity at 1 µM [1, 7] [%] | remaining activity at 1 µM [1, 8] [%] | remaining activity at 1 µM [2, 7] [%] | remaining activity at 1 µM [2, 8] [%] | remaining activity at 1 µM [2, 9] [%] | remaining activity at 10 µM [2, 10] [%] | remaining activity at 10 µM [2, 11] [%] | remaining activity at 10 µM [2, 12] [%] | remaining activity at 1 µM [3, 7] [%] | remaining activity at 1 µM [3, 8] [%] | remaining activity at 1 µM [3, 9] [%] | remaining activity at 10 µM [3, 10] [%] | remaining activity at 10 µM [3, 11] [%] | remaining activity at 10 µM [3, 12] [%] | remaining activity at 1 µM [4, 7] [%] | remaining activity at 1 µM [4, 8] [%] | remaining activity at 1 µM [4, 9] [%] | remaining activity at 10 µM [4, 10] [%] | remaining activity at 10 µM [4, 11] [%] | remaining activity at 10 µM [4, 12] [%] | Structure (SMILES) | further results |
| --- | --- | --- | --- | --- | --- | --- | --- | --- | --- | --- | --- | --- | --- | --- | --- | --- | --- | --- | --- | --- | --- |
| 90.4 | 87.6 | 107 | 111 | 102 | 109 | 113 | 105 | 92.6 | 95.6 | 89.7 | 87.3 | 89 | 85.7 | 104 | 106 | 103 | 99 | 103 | 95 | Cc1cccc(C)c1OCC(=O)N[C@@H](Cc1ccccc1)[C@@H](O)C[C@H](Cc1ccccc1)NC(=O)[C@H](C(C)C)N1CCCNC1=O [Lopinavir, reference compound] | remaining activity at 1 µM [5, 7]: 116%; remaining activity at 1 µM [5, 8]: 118%; remaining activity at 1 µM [5, 9]: 115%; remaining activity at 10 µM [5, 10]: 88.7%; remaining activity at 10 µM [5, 11]: 98.3%; remaining activity at 10 µM [5, 12]: 79.2%; remaining activity at 1 µM [1, 9]: 93.2%; remaining activity at 10 µM [1, 10]: 49.9%; remaining activity at 10 µM [1, 11]: 47.2%; remaining activity at 10 µM [1, 12]: 52.5%; remaining activity at 1 µM ([1]; compound 1μM, relative to DMSO controls, read-out: % Enzyme activity at 1μM): 90.4%; remaining activity at 10 µM ([1]; compound 10μM, relative to DMSO controls, read-out: % Enzyme activity at 10μM): 49.9% |
| – | – | 105 | 107 | 103 | 109 | 109 | 110 | 101 | 99.4 | 102 | 93.4 | 93 | 93.8 | 96.6 | 94.4 | 98.7 | 101 | 103 | 99.4 | O=C(O)c1ccccc1O [Salicylic acid] | remaining activity at 1 µM [5, 7]: 88.2%; remaining activity at 1 µM [5, 8]: 88.1%; remaining activity at 1 µM [5, 9]: 88.3%; remaining activity at 10 µM [5, 10]: 102%; remaining activity at 10 µM [5, 11]: 93.8%; remaining activity at 10 µM [5, 12]: 109% |

Further lines, the compound ahead of its results:

| Structure (SMILES) | remaining activity at 1 µM [1, 7] [%] | remaining activity at 1 µM [1, 8] [%] | remaining activity at 1 µM [2, 7] [%] | remaining activity at 1 µM [2, 8] [%] | remaining activity at 1 µM [2, 9] [%] | remaining activity at 10 µM [2, 10] [%] | remaining activity at 10 µM [2, 11] [%] | remaining activity at 10 µM [2, 12] [%] | remaining activity at 1 µM [3, 7] [%] | remaining activity at 1 µM [3, 8] [%] | remaining activity at 1 µM [3, 9] [%] | remaining activity at 10 µM [3, 10] [%] | remaining activity at 10 µM [3, 11] [%] | remaining activity at 10 µM [3, 12] [%] | remaining activity at 1 µM [4, 7] [%] | remaining activity at 1 µM [4, 8] [%] | remaining activity at 1 µM [4, 9] [%] | remaining activity at 10 µM [4, 10] [%] | remaining activity at 10 µM [4, 11] [%] | remaining activity at 10 µM [4, 12] [%] | further results |
| --- | --- | --- | --- | --- | --- | --- | --- | --- | --- | --- | --- | --- | --- | --- | --- | --- | --- | --- | --- | --- | --- |
| COc1cc2c(c(OC)c1OC)-c1ccc(OC)c(=O)cc1[C@@H](NC(C)=O)CC2 [Colchicine] | – | – | – | – | – | – | – | – | – | – | – | – | – | – | – | – | – | – | – | – | % Enzyme Activity (relative to DMSO controls), Data 2 ([1]; 1 uM, replicate Data 2): 111.85%; % Enzyme Activity (relative to DMSO controls), Data 2 ([1]; 10 uM, replicate Data 2): 96.44%; % Enzyme Activity (relative to DMSO controls), Data 2 ([2]; 10 uM, replicate Data 2): 111.97%; % Enzyme Activity (relative to DMSO controls), Data 2 ([3]; 1 uM, replicate Data 2): 106.52%; % Enzyme Activity (relative to DMSO controls), Data 2 ([3]; 10 uM, replicate Data 2): 99.11%; % Enzyme Activity (relative to DMSO controls), Data 2 ([4]; 1 uM, replicate Data 2): 110.08%; % Enzyme Activity (relative to DMSO controls), Data 2 ([4]; 10 uM, replicate Data 2): 105.23% |
| O=C1Nc2ccc(Cl)cc2[C@@](C#CC2CC2)(C(F)(F)F)O1 [Efavirenz] | – | – | – | – | – | – | – | – | – | – | – | – | – | – | – | – | – | – | – | – | % Enzyme Activity (relative to DMSO controls), Data 1 ([5]; 1 uM, replicate Data 1): 110.94%; % Enzyme Activity (relative to DMSO controls), Data 1 ([5]; 10 uM, replicate Data 1): 81.38%; % Enzyme Activity (relative to DMSO controls), Data 1 ([2]; 1 uM, replicate Data 1): 101.66%; % Enzyme Activity (relative to DMSO controls), Data 1 ([3]; 1 uM, replicate Data 1): 93.6%; % Enzyme Activity (relative to DMSO controls), Data 1 ([3]; 10 uM, replicate Data 1): 93.32%; % Enzyme Activity (relative to DMSO controls), Data 1 ([4]; 1 uM, replicate Data 1): 102.21%; % Enzyme Activity (relative to DMSO controls), Data 1 ([4]; 10 uM, replicate Data 1): 95.58% |
| CC(=O)O[C@H]1C[C@@]2(C)[C@@H](C[C@@H](O)[C@H]3[C@@]4(C)CC[C@@H](O)[C@@H](C)[C@@H]4CC[C@@]32C)/C1=C(\CCC=C(C)C)C(=O)O [Fusidic acid] | 96.4 | 102 | 100 | 95.3 | 105 | 111 | 113 | 108 | 101 | 101 | 101 | 92.3 | 95.3 | 89.3 | 109 | 110 | 107 | 101 | 96 | 105 | remaining activity at 1 µM [1, 9]: 90.5%; remaining activity at 10 µM [1, 10]: 93.7%; remaining activity at 10 µM [1, 11]: 93%; remaining activity at 10 µM [1, 12]: 94.5% |
| O=P(O)(O)C(O)(Cc1cnc2ccccn12)P(=O)(O)O [Minodronic acid] | – | – | – | – | – | – | – | – | – | – | – | – | – | – | – | – | – | – | – | – | remaining activity at 1 µM [6, 13]: 95.6%; remaining activity at 10 µM [6, 13]: 81.5%; remaining activity at 1 µM [6, 14]: 84.5%; remaining activity at 10 µM [6, 14]: 83.7%; remaining activity at 1 µM [6, 15]: 107%; remaining activity at 10 µM [6, 15]: 79.3% |
